The values below are quoted from earlier work in PubChem BioAssay AID1259409 (Chemical Carcinogenesis Research Information System (CCRIS), 2018).

The structures appear in SMILES notation.

The subject of the series is rodent chemically induced tumor inhibition, incidence and multiplicity. Briefly: CCRIS tumor inhibitor studies. The settings on record: Carcinogen: 7,12-DIMETHYLBENZ[A]ANTHRACENE; 57-97-6; Dose [Inhibitor]: 0; 1 MMOL/KG IN DIET FOR THE DURATION OF STUDY BEGINNING 1 WK PRIOR TO CARCINOGEN DOSE (STUDY DURATION: 105 WK); Route [Inhibitor]: ORAL; Species: RAT; Strain/Sex: SPRAGUE-DAWLEY/FEMALE; Target Tissue: Type of Lesion: MAMMARY GLAND: TUMOR; Dose [Carcinogen]: 15 MG IN 1 ML SESAME OIL ONCE; Promoter: NONE USED.

`CC1=C(/C=C/C(C)=C/C=C/C(C)=C/C(=O)Nc2ccc(O[C@@H]3O[C@H](C(=O)O)[C@@H](O)C(O)C3O)cc2)C(C)(C)CCC1` (stereo partly specified): the “tumour outcome (control, treated, inhibition, significance)” value is 88%, 36%, 59%, not significant.
